{"source": "patent US10011610B2", "about": "“Selective BACE1 inhibitors” (Eli Lilly and Company, priority 2015, dated 2018)", "key": {"human BACE1(1-460):Fc": {"molecular_target": "T1, human BACE1(1-460):Fc (Homo sapiens, UniProt P56817)", "T1 construct": "made in house; host or cells: HEK293 (transient transfection, purified from conditioned media by Protein A)", "T1 sequence (P56817 22-460)": "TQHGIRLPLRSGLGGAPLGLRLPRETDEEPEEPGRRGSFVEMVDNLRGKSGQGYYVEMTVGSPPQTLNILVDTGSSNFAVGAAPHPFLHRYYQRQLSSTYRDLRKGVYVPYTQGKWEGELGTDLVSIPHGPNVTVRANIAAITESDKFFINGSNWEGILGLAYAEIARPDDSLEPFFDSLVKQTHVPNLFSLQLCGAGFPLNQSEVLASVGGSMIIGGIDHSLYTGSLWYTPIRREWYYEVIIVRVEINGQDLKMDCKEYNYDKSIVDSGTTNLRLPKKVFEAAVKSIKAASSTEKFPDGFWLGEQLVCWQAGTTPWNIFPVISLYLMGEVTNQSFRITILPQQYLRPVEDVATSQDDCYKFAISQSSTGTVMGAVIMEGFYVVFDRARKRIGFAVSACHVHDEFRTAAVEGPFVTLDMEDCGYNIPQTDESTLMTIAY", "experiment": "BACE1 FRET Assay", "type": "biochemical", "settings": "purified recombinant huBACE1:Fc, mean±standard deviation of the mean, n=4", "method": "(§1) To assess selectivity of BACE1 over BACE2, the test compound is evaluated in FRET and immunoassay detection base enzymatic assays using specific substrates for BACE1 and BACE2 as described below. For in vitro enzymatic and cellular assays, the test compound is prepared in DMSO to make up a 10 mM stock solution. The stock solution is serially diluted in DMSO to obtain a ten-point dilution curve with final compound concentrations ranging from 10 μM to 0.05 nM in a 96-well round-bottom plate before conducting the in vitro enzymatic and whole cell assays.\nHuman BACE1 (accession number: AF190725) and human BACE2 (accession number: AF 204944) are cloned from total brain cDNA by RT-PCR. The nucleotide sequences corresponding to amino acid sequences #1 to 460 are inserted into the cDNA encoding human IgG1 (Fc) polypeptide (Vassar et al., Science, 286, 735-742 (1999)). […]\n(§2) Conditioned media of HEK293 cells transiently transfected with huBACE1:Fc or huBACE2:Fc cDNA are collected. […] The purity of final product is assessed by electrophoresis in 4-20% Tris-Glycine SDS-PAGE. […]\nSerial dilutions of the test compound are prepared as described above. […] The RFU of the mixture at time 0 is recorded at excitation wavelength 355 nm and emission wavelength 460 nm, after brief mixing on a plate shaker. […] The RFU at the end of incubation is recorded with the same excitation and emission settings used at time 0. […]"}, "human BACE2 (1-460):Fc": {"molecular_target": "T2, human BACE2 (1-460):Fc (Homo sapiens, UniProt Q9Y5Z0)", "T2 construct": "made in house; host or cells: HEK293 (transient transfection, purified from conditioned media by Protein A)", "T2 sequence (Q9Y5Z0 21-460)": "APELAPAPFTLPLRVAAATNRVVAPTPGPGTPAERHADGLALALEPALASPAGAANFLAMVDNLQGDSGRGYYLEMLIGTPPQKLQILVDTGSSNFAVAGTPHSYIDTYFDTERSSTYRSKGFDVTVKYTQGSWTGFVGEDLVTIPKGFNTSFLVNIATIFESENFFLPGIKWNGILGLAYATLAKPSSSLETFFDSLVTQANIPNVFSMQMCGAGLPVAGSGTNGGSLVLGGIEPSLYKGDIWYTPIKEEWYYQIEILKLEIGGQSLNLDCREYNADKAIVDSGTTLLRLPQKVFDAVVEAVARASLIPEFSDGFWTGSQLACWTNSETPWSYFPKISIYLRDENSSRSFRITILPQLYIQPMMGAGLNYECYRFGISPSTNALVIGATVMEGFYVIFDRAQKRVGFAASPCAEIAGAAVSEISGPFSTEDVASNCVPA", "experiment": "BACE2 MBP-C125Swe Assay", "type": "biochemical", "method": "as §1\nHuman BACE1 (accession number: AF190725) and human BACE2 (accession number: AF 204944) are cloned from total brain cDNA by RT-PCR. The nucleotide sequences corresponding to amino acid sequences #1 to 460 are inserted into the cDNA encoding human IgG1 (Fc) polypeptide (Vassar et al., Science, 286, 735-742 (1999)). This fusion protein of BACE1(1-460) or BACE2(1-460) and human Fc, named huBACE1:Fc and huBACE2:Fc respectively, are constructed in the pJB02 vector. […]\nas §2\n10 point serial dilutions of test compounds are prepared in the appropriate range. […] The amount of product is measured by ELISA using MBP-C26swe standard. […]"}, "[1]": {"test_system": "BACE1 activity in SH-SY5YAPP695Wt cells", "experiment": "SH-SY5YAPP695Wt Whole Cell Assay (Abeta 1-40 and 1-42 ELISA)", "type": "cell-based", "settings": "Homo sapiens, 24 hours incubation, mean±standard deviation of the mean, n=4", "method": "as §1\nThe routine whole cell assay for the measurement of inhibition of BACE1 activity utilizes the human neuroblastoma cell line SH-SY5Y (ATCC Accession No. CRL2266) stably expressing a human APP695Wt cDNA. Cells are routinely used up to passage number 6 and then discarded.\nSH-SY5YAPP695Wt cells are plated in 96 well tissue culture plates at 5.0×10^4 cells/well in 200 μL culture media (50% MEM/EBSS and Ham's F12, lx each sodium pyruvate, non-essential amino acids and NaHCO3 containing 10% FBS). […]\nAt the end of the incubation, conditioned media are analyzed for evidence of beta-secretase activity by analysis of Abeta peptides 1-40 and 1-42 by specific sandwich ELISAs. […]"}, "[2]": {"test_system": "Abeta 1-x peptide levels in brain", "experiment": "In Vivo Inhibition of Beta-Secretase (brain Abeta 1-x in PDAPP mice)", "settings": "p<0.01; for reduction of Abeta 1-x peptide levels in brain hippocampus: young female PDAPP mice; for reduction of Abeta 1-x levels in brain cortical tissue: PDAPP mice, compared to vehicle-treated mice three hours after dosing", "from_the_text": "Several animal models, including mouse, guinea pig, dog, and monkey, may be used to screen for inhibition of beta-secretase activity in vivo following compound treatment. Animals used in this invention can be wild type, transgenic, or gene knockout animals. For example, the PDAPP mouse model, prepared as described in Games et al., Nature 373, 523-527 (1995), and other non-transgenic or gene knockout animals are useful to analyze in vivo inhibition of Abeta and sAPPbeta production in the presence of inhibitory compounds. Generally, 2 month old PDAPP mice, gene knockout mice or non-transgenic animals are administered compound formulated in vehicles, such as corn oil, beta-cyclodextran, phosphate buffers, PHARMASOLVE®, or other suitable vehicles via oral, subcutaneous, intra-venous, feeding, or other route of administration. 1 to 24 hours following the administration of compound, animals are sacrificed, and brains are removed for analysis of Abeta 1-x. “Abeta 1-x” as used herein refers to the sum of Abeta species that begin with residue 1 and end with a C-terminus greater than residue 28. This detects the majority of Abeta species and is often called “total Abeta”. Total Abeta peptides (Abeta 1-x) levels are measured by a sandwich ELISA, using monoclonal 266 as a capture antibody and biotinylated 3D6 as reporting antibody. (See May, et al., Journal of Neuroscience, 31, 16507-16516 (2011)).\nFor acute studies, compound or appropriate vehicle is administered and animals are sacrificed at about 3 hours after dosing. Brain tissue, is obtained from selected animals and analyzed for the presence of Abeta 1-x. After chronic dosing brain tissues of older APP transgenic animals may also be analyzed for the amount of beta-amyloid plaques following compound treatment.\nFor example, a 0.1, 0.3, and 1 mg/kg oral dose of Example 1, to young female PDAPP mice reduced Abeta 1-x peptide levels in brain hippocampus by 32%, 40%, and 55% (all values p<0.01), respectively."}}, "note": "pIC50: −log10 of the molar value. Read-outs that look alike come from different tables or passages of the source.", "data": [{"smiles": "CC(F)(F)[C@H]1OC[C@]2(c3cc(NC(=O)c4ccc(C#N)cn4)ccc3F)N=C(N)SC[C@H]12", "note": "[Example 1, N-[3-[(4aS,5S,7aS)-2-Amino-5-(1,1-difluoroethyl)-4,4a,5,7-tetrahydrofuro[3,4-d][1,3]thiazin-7a-yl]-4-fluoro-phenyl]-5-cyano-pyridine-2-carboxamide]", "values": [{"measurement": "pIC50", "setting": "human BACE1(1-460):Fc", "result": 9.29}, {"measurement": "pIC50", "setting": "human BACE2 (1-460):Fc; MBP-C125Swe substrate, ELISA detection, mean±standard deviation of the mean, n=6", "result": 7.75}, {"measurement": "ratio of BACE1 (FRET IC50 enzyme assay) to BACE2 (MBP-C125Swe cell assay)", "setting": "human BACE2 (1-460):Fc; selectivity for BACE1 over BACE2", "result": "approximately 35 fold"}, {"measurement": "pIC50", "setting": "[1]; read-out: IC50 for SH-SY5YAPP695Wt A-beta (1-40) ELISA", "result": 9.80}, {"measurement": "pIC50", "setting": "[1]; read-out: IC50 for SH-SY5YAPP695Wt A-beta (1-42) ELISA", "result": 9.75}, {"measurement": "reduction of Abeta 1-x peptide levels in brain hippocampus", "setting": "[2]; 0.1 mg/kg oral dose", "result": 32, "unit": "%"}, {"measurement": "reduction of Abeta 1-x levels in brain cortical tissue", "setting": "[2]; 0.1 mg/kg", "result": 38, "unit": "%"}, {"measurement": "reduction of Abeta 1-x peptide levels in brain hippocampus", "setting": "[2]; 0.3 mg/kg oral dose", "result": 40, "unit": "%"}, {"measurement": "reduction of Abeta 1-x levels in brain cortical tissue", "setting": "[2]; 0.3 mg/kg", "result": 50, "unit": "%"}, {"measurement": "reduction of Abeta 1-x peptide levels in brain hippocampus", "setting": "[2]; 1 mg/kg oral dose", "result": 55, "unit": "%"}, {"measurement": "reduction of Abeta 1-x levels in brain cortical tissue", "setting": "[2]; 1 mg/kg", "result": 67, "unit": "%"}]}]}
